Source: patent US10370387B2, “Tricyclic fused thiophene derivatives as JAK inhibitors” (Incyte Corporation, priority 2012, dated 2019)

Tests used:
Assay type in all cases: biochemical
human JAK2 = human JAK2 (Homo sapiens (Human), UniProt O60674); assay: In vitro JAK kinase assay (HTRF, phosphorylation of biotinylated peptide), JAK2; conditions: 1 mM ATP
Method: Compounds herein were tested for inhibitory activity of JAK targets according to the following in vitro assay described in Park et al., Analytical Biochemistry 1999, 269, 94-104. The catalytic domains of human JAK1 (a.a. 837-1142), JAK2 (a.a. 828-1132) and JAK3 (a.a. 781-1124) were expressed using baculovirus in insect cells and purified. The catalytic activity of JAK1, JAK2 or JAK3 was assayed by measuring the phosphorylation of a biotinylated peptide. The phosphorylated peptide was detected by homogenous time resolved fluorescence (HTRF). IC50s of compounds were measured for each kinase in the 40 μL reactions that contain the enzyme, ATP and 500 nM peptide in 50 mM Tris (pH 7.8) buffer with 100 mM NaCl, 5 mM DTT, and 0.1 mg/mL (0.01%) BSA. For the 1 mM IC50 measurements, ATP concentration in the reactions was 1 mM. Reactions were carried out at room temperature for 1 hour and then stopped with 20 μL 45 mM EDTA, 300 nM SA-APC, 6 nM Eu-Py20 in assay buffer (Perkin Elmer, Boston, Mass.). Binding to the Europium labeled antibody took place for 40 minutes and HTRF signal was measured on a PHERA star plate reader (BMG, Cary, N.C.). The Example compounds were each tested in the Example A assay (see Table 1 for data for the compounds of the examples as tested by the assay of Example A at 1 mM ATP).

human JAK1 [1] = assay: In vitro JAK kinase assay (HTRF, phosphorylation of biotinylated peptide), JAK1; conditions: ratio of JAK2 IC50 to JAK1 IC50, 1 mM ATP
How it was run: (§1)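 Baculovirus-expressed catalytic domains (JAK1 a.a. 837-1142, JAK2 a.a. 828-1132) phosphorylate 500 nM biotinylated peptide at 1 mM ATP, Tris pH 7.8, 1 h at room temperature. EDTA stop and HTRF detection with Eu-Py20/SA-APC; IC50 values derived.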

human JAK1 [2] = target: human JAK1 (Homo sapiens, UniProt P23458); assay: as above; conditions: 1 mM ATP
How it was run: as §1

human JAK2, sequence (O60674 828-1132): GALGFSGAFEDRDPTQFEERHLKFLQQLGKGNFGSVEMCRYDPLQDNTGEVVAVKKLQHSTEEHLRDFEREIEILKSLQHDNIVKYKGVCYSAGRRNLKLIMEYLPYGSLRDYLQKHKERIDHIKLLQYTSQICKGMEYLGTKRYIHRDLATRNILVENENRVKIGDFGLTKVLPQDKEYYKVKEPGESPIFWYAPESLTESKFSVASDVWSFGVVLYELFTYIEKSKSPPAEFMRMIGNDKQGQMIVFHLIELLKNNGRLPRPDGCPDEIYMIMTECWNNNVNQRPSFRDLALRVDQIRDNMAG

## Cc1nn2cnc3ccsc3c2c1-c1ccc(CC#N)cc1 [Example 46, [4-(8-Methylpyrazolo[1,5-c]thieno[2,3-e]pyrimidin-9-yl)phenyl]acetonitrile]
Human JAK2
  IC50: ≤ 1 µM
Human JAK1 [1]
  JAK2/JAK1: >3
Human JAK1 [2]
  IC50: ≤ 0.1 µM
